Reference: patent US8637050B2, “Peptide vaccines against group A streptococci” (The United States of America, as represented by the …, priority 2001, dated 2014)

Key:
[1] = system: rabbit sera prepared against whole M protein; assay: ELISA: peptide recognition by anti-M protein rabbit sera; type: binding
Procedure: Overlapping peptides representing each M type were assessed for their immunogenicity using ELISA and dot-immunoblot.
(§1) Levels of anti-M protein antibodies in mouse sera were determined by an enzyme-linked immunosorbent assay (ELISA) using either synthetic peptides or whole M protein as antigen. Microtiter plates (DYNEX Immulon 2 HB) were coated with 10 μg/ml antigen in 10 mM phosphate-buffered saline (PBS) at 4° C. overnight. Plates were rinsed three times with wash buffer (0.05% Tween 20 in 10 mM PBS, pH 7.2) and blocked with 1% BSA in PBS for one hour at 37° C. The appropriate test sera were applied at a starting dilution of 1:1000 and serially diluted two fold down the plate in PBS. Plates were incubated at 37° C. for 30 minutes and subsequently rinsed three times. Goat anti-rabbit or goat anti-mouse Ig-peroxidase conjugate diluted 1:10,000 in PBS was added to all wells and incubated for two hours at 37° C. Plates were rinsed three times with wash buffer and freshly prepared TMB peroxidase (Kirkegaard and Perry Laboratories) was added. Reactions were quenched with 0.18 M H2SO4 after 30 minutes at room temperature and OD450 was measured with a Labsystems Multiskan plate reader using Ascent software. ELISA titers are expressed as the reciprocal of the last dilution which gave a reading OD450>0.10.
The immunoreactivity of several synthetic peptides was determined by ELISA using rabbit sera prepared against whole M protein. The synthetic peptides are representative of relatively small portions of the M protein N-terminus; therefore, it was advantageous to determine if the epitopes contained within particular peptides were immunoreactive with sera prepared against whole M protein. It was shown that the whole anti-M protein rabbit sera of the respective serotypes could bind to each of the synthetic peptides within that serotype. However, some peptides were more highly immunoreactive than others, thus being better suited for use in the animal studies.

[2] = system: anti-M protein antibodies in mouse sera; assay: ELISA of sera of mice immunized s.c. with peptide in alum (immunogenicity); type: in vivo, mice (Swiss Webster)
Procedure: as §1
Mice (6 week old female Swiss Webster, Harley-Sprague) were immunized subcutaneously (s.c.) with either the peptide in alum or alum alone for control groups. Peptides were rotated in the alum mixture for 2 hours at 4° C. and stored at 4° C. overnight prior to use.

| Sequence | immunoreactivity by ELISA using rabbit sera prepared against whole M protein [1] | ELISA (elicitation of antibodies) [2] | immunoreactivity of peptide with anti-M protein rabbit sera (ELISA) ([1]; rabbit sera against whole M protein of the respective serotype) |
| --- | --- | --- | --- |
| CAEKQRLEDLGQKFERLKQRS [Peptide M12-2] | confirmed | yes (weak) |  |
| CIQNIRLRHENKDLKARLENA [Peptide M1-2] | confirmed | no |  |
| CKKEAKLSEAELHDKIKNLEEEK [Peptide M2-2] | confirmed |  |  |
| CKKEATKLSEAELYNKIQELEE [st2967-3] | confirmed |  |  |
| CKNDKLSSENEGLKAGLQEKE [Peptide M101-5] | confirmed |  |  |
| CKQRSELYLQQYYDNKSNRYK [Peptide M12-6] | confirmed |  |  |
| CKSTETSANGADKLADAYNTL [Peptide M28-2] | confirmed |  |  |
| CLAQVTQLYTKHNSNYQQYNA [Peptide M3-7] | confirmed |  |  |
| CLDQVTQLYNKHNSNYQQYSA [Peptide M3-4] | confirmed | no |  |
| CLDQVTQLYTKHNSNYQQYNA [Peptide M3-3] | confirmed |  |  |
| CLDQVTQLYTKHNSNYQQYSA [Peptide M3-5] | confirmed |  |  |
| CLEDLGQKFERLKQRSELYLQ [Peptide M12-3] | confirmed | no |  |
| CLEEERGEHLDKIDELKEELK [Peptide M89-8] | confirmed |  |  |
| CLNKLDKVEEEHKKDHEQLEK [Peptide M77-5] | confirmed |  |  |
| CLNQVTQLHTKHNSNYQQYNA [Peptide M3-8] | confirmed |  |  |
| CLNQVTQLYTKHNSNYQQYNA [Peptide M3-6] | confirmed |  |  |
| CLRQKEENDKLKLEKKGLETE [Peptide M43-4] | confirmed |  |  |
| CNDELRENYRRTLDKFNTEQ [Peptide M75-3] | confirmed |  |  |
| CNENKSLRRERDNYLNYLYEK [Peptide M59-3] | confirmed |  |  |
| CNGDGNPREVIEDLAANNPAIQ [Peptide M1-1] | confirmed |  |  |
| CNGDGNPREVIEDLAANNPAME [Peptide M1-4] |  | no | highest reactivity |

| Sequence | immunoreactivity by ELISA using rabbit sera prepared against whole M protein [1] | ELISA (elicitation of antibodies) [2] | immunoreactivity of peptide with anti-M protein rabbit sera (ELISA) ([1]; rabbit sera against whole M protein of the respective serotype) |
| --- | --- | --- | --- |
| CNGDGNPREVIEDLAANNPVIQ [Peptide M1-6] | confirmed |  |  |
| CNGDGNPRVVIEDLAANNPAIQ [Peptide M1-7] | confirmed |  |  |
| CNHQLTVENKKLKTDKEQLTKE [Peptide M18-6] | confirmed |  |  |
| CNSKNPAPAPASAVPVKKEATK [st2967-1] | confirmed |  |  |
| CNSKNPAPAPAVPVKKEATKL [st2967-4] | confirmed |  |  |
| CNSKNPAPAVPVKKEATKLSE [st2967-5] | confirmed |  |  |
| CNSKNPVPVKKEAKLSEAELHDK [Peptide M2-1] | confirmed |  |  |
| CNSMLQANNDKLTTENKNLTD [Peptide M6-5] | confirmed |  |  |
| CNTLNTLTDENEKLREELQQ [Peptide M22-4] | confirmed |  |  |
| CQAQEEALRDVLNNTPHNQLRD [Peptide M41-3] | confirmed |  |  |
| CQELEEGKAELFDKLEKVEEE [Peptide M73-6] | confirmed |  |  |
| CQHKNNALTSENESLRREKDR [Peptide M94-2] | confirmed |  |  |
| CQLRDPYAGAFRRNNELEKIIQE [Peptide M41-5] | confirmed |  |  |
| CQLYTKHIYTKHNSNYQQYNAQ [Peptide M3-10] | confirmed |  |  |
| CQRAKAALDKYELENHDLKTKN [Peptide M5-4] | confirmed |  |  |
| CRATADNKDELIKRANDYEIQ [Peptide M18-2] | confirmed |  |  |
| CRATADNKDELIKRANGYEIQ [Peptide M18-4] | confirmed |  |  |
| CRDITEAGVSKFWKSKFDAEQN [Peptide M82-2] | confirmed |  |  |
| CRENYRRTLDKFNTEQGKTTR [Peptide M75-5] | confirmed |  |  |
| CREVTNELTASMWKAQADSAK [Peptide M58-2] | confirmed |  |  |
| CRGTVENPDKARELLNKYDVEN [Peptide M6-2] | confirmed |  |  |

| Sequence | immunoreactivity by ELISA using rabbit sera prepared against whole M protein [1] | ELISA (elicitation of antibodies) [2] | immunoreactivity of peptide with anti-M protein rabbit sera (ELISA) ([1]; rabbit sera against whole M protein of the respective serotype) |
| --- | --- | --- | --- |
| CRLAQAQEEALRDVLNNTPHN [Peptide M41-2] | confirmed |  |  |
| CRREEKDRYLYEKEELEKKNK [Peptide M94-4] | confirmed |  |  |
| CRRERDNYLNYLYEKEELEKK [Peptide M59-4] | confirmed |  |  |
| CRSDARSVNGEFPRHVKLKNE [Peptide M3-9] | confirmed |  |  |
| CRSVSTNSGSVSTPYNNLLNE [Peptide M92-2] | confirmed |  |  |
| CRVFPRGTVENPDKARELLNK [Peptide M6-1] | confirmed |  |  |
| CRVPGTLWLRQKEENDKLKLEK [Peptide M43-3] | confirmed |  |  |
| CSDASLHNRITDLEEEREKLLNK [Peptide M77-2] | confirmed |  |  |
| CSELYLQQYYDNKSNGYKGDW [Peptide M12-7] | confirmed |  |  |
| CSVKDNEKELHNKIADLEEER [Peptide M89-3] | confirmed |  |  |
| CTEHEKLRDEYYTLIDAKEEE [Peptide M28-5] | confirmed |  |  |
| CTEHEKLRDEYYTLIDAKLEEK [Peptide M28-4] | confirmed |  |  |
| CTEVKAAGQSAPKGTNVSADL [Peptide M11-4] | confirmed |  |  |
| CTQLYTKHNSNYQQYNAQAGR [Peptide M3-11] | confirmed |  |  |
| CTVTRGTINDPQRAKEALDKYE [Peptide M5-1] | confirmed |  |  |
| CTVTRGTINDPQRAKEVIDKYE [Peptide M5-7] | confirmed |  |  |
| CTVTRGTVNDPQRAKEALDKYE [Peptide M5-5] | confirmed |  |  |
| CTVTRGTVNDPQRAKETLDKYE [Peptide M5-6] | confirmed |  |  |
| CTVTRSTINDPQRAKEALDKYE [Peptide M5-8] | confirmed |  |  |
| CVPVKKEATKLSEAELYNKIQ [st2967-2] | confirmed |  |  |
